Test results from article PMC12846068, “Insights into Transport Function of the Murine Organic Anion-Transporting Polypeptide OATP1B2 by Comparison with Its Rat and Human Orthologues” (Toxics, 2025).
“Also recorded” adds a separate entry of the source. Read-outs that look alike come from different tables or passages of the source.

Key:
Type in all cases: cell-based
hOATP1B3 = biological target: T1, hOATP1B3 (Homo sapiens, UniProt Q9NPD5); test: cis-inhibition of hOATP1B3-mediated TCA uptake in HEK293 cells; parameters: expressed in transfected cells; host or cells: HEK-293, stably transfected; details: 10 µM drug; for inhibition at 10 min, 10 µM: human, HEK293 cells expressing hOATP1B3, probe 1 µM TCA (containing 0.01 µM [3H]-TCA), Inhibitory effect on hOATP1B3-mediated TCA uptake; for Inhibitory effect on hOATP1B3-mediated TCA uptake: 1 µM TCA, 10 min
T1 sequence (Q9NPD5 1-702): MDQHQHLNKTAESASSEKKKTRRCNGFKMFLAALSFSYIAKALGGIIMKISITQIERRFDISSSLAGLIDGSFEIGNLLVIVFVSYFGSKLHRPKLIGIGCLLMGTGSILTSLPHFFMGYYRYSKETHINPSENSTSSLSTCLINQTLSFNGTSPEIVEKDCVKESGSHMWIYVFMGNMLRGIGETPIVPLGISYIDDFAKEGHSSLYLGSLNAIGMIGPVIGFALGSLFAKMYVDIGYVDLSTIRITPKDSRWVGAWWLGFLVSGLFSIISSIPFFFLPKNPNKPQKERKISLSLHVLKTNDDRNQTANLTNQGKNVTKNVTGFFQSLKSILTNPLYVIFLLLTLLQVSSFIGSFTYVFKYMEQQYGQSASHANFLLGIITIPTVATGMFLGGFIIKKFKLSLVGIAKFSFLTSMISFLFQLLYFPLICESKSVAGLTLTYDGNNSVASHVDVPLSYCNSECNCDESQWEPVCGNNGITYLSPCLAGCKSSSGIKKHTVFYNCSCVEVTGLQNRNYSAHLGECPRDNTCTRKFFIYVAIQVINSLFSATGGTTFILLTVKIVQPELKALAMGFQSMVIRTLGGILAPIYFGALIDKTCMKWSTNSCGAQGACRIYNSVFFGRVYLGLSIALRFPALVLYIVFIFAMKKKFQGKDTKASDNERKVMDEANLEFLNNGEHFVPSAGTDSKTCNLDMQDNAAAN
Description: (§1) Inhibitory effects were calculated as a percentage of the net-uptake rates.
(§2) The means ± average deviation (AD, for N = 2) were calculated from two experiments on two different days. The significance as a p-value was calculated using Student’s t-test in Microsoft Excel.

hOATP1B1 = biological target: T2, hOATP1B1 (Homo sapiens, UniProt Q9Y6L6); test: cis-inhibition of hOATP1B1-mediated E1S uptake in HEK293 cells; parameters: expressed in transfected cells; host or cells: HEK-293, stably transfected; details: 10 µM drug; for inhibition at 1 min, 10 µM: human, HEK293 cells expressing hOATP1B1, probe 0.01 µM [3H]-E1S, read-out: Inhibitory effect on hOATP1B1-mediated E1S uptake; for Inhibitory effect on hOATP1B1-mediated E1S uptake: 0.01 µM [3H]-E1S, 1 min
T2 sequence (Q9Y6L6 1-691): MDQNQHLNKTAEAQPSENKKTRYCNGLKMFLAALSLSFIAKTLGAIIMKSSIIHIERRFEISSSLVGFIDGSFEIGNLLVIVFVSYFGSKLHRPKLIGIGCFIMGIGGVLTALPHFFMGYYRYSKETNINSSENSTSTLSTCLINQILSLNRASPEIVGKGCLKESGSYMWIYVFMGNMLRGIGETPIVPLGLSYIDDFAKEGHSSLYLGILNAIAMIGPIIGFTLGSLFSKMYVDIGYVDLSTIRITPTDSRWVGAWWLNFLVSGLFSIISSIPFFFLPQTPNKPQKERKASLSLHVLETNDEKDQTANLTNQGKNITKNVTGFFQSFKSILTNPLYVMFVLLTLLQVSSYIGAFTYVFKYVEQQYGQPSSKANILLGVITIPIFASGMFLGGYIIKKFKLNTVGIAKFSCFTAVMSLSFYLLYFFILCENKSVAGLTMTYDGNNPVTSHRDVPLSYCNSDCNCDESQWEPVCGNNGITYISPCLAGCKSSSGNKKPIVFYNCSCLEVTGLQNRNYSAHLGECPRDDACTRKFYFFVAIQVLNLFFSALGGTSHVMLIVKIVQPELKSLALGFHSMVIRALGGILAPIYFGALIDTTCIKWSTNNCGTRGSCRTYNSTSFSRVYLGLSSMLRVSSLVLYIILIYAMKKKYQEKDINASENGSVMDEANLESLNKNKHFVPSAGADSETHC
Description: as §1, §2

rOATP1B2 = biological target: T3, rOATP1B2 (Rattus norvegicus, UniProt Q9QZX8); test: cis-inhibition of rOATP1B2-mediated E1S or TCA uptake in HEK293 cells
T3 construct: The full-length mOATP1B2 and rOATP1B2 consist of 689 and 678 amino acids
T3 sequence (Q9QZX8 1-687): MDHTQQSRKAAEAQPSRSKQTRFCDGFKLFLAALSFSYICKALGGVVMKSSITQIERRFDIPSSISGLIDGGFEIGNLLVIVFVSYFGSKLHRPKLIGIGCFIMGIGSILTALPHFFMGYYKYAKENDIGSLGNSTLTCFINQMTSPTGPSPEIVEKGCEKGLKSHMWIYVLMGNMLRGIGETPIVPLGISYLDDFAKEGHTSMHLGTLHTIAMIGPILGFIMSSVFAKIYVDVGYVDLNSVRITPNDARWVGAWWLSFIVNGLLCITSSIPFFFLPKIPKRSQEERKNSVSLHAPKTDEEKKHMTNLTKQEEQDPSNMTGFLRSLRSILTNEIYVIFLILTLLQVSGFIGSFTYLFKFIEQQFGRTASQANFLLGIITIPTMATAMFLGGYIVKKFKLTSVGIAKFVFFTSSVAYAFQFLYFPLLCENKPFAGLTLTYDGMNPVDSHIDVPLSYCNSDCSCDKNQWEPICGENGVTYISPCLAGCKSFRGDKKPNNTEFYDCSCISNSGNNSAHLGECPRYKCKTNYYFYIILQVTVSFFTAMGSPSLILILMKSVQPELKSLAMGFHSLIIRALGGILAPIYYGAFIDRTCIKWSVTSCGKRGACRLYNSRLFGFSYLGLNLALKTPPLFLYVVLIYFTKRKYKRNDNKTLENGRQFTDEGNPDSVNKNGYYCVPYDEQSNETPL

[1] = HEK293, 10 µM drug, 1 µM [3H]-E1S, 1 min, read-out: Inhibitory effect on rOATP1B2-mediated E1S uptake
[2] = HEK293, read-out: Inhibitory effect on rOATP1B2-mediated TCA uptake, 10 µM drug, 1 µM [3H]-TCA, 1 min
[3] = HEK293, read-out: Inhibitory effect on rOATP1B2-mediated substrate uptake (summary over E1S and TCA), 10 µM drug, substrates E1S and TCA not separated

| inhibition at 10 min, 10 µM (hOATP1B3) [%] | inhibition at 1 min, 10 µM (hOATP1B1) [%] | IC50 (rOATP1B2; 1 µM [3H]-E1S, 1 min, read-out: IC50, rOATP1B2-mediated E1S uptake) [nM] | fold difference of IC50 between mOATP1B2 and rOATP1B2 (stronger inhibition of rOATP1B2) (rOATP1B2; E1S uptake) [fold] | inhibition at 10 µM (rOATP1B2; [1]) [%] | inhibition at 10 µM (rOATP1B2; [2]) [%] | IC50 (rOATP1B2; IC50, rOATP1B2-mediated TCA uptake, 1 µM [3H]-TCA, 1 min) [nM] | fold difference of IC50 between mOATP1B2 and rOATP1B2 (rOATP1B2; TCA uptake) [fold] | Inhibitory effect on hOATP1B3-mediated TCA uptake (hOATP1B3) | Inhibitory effect on hOATP1B3-mediated TCA uptake (hOATP1B3; listed as ketoconazole) | Inhibitory effect on hOATP1B1-mediated E1S uptake (hOATP1B1) | Inhibitory effect on hOATP1B1-mediated E1S uptake (hOATP1B1; listed as ketoconazole) | inhibition at 10 µM (rOATP1B2; [3]) [%] | Inhibitory effect on hOATP1B3-mediated TCA uptake (hOATP1B3; listed as amprenavir) | Inhibitory effect on hOATP1B1-mediated E1S uptake (hOATP1B1; listed as amprenavir) | SMILES | Inhibitory effect on rOATP1B2-mediated substrate uptake (summary over E1S and TCA) (rOATP1B2; 10 µM drug, substrates E1S and TCA not separated) |
| --- | --- | --- | --- | --- | --- | --- | --- | --- | --- | --- | --- | --- | --- | --- | --- | --- |
| 104 | 59 | 1100 | 8.7 | 93 | 83 | 2400 | 3.2 | – | – | – | – | – | – | – | CO[C@H]1/C=C/O[C@@]2(C)Oc3c(C)c(O)c4c(O)c(c(/C=N/N5CCN(C)CC5)c(O)c4c3C2=O)NC(=O)/C(C)=C\C=C\[C@H](C)[C@H](O)[C@@H](C)[C@@H](O)[C@@H](C)[C@H](OC(C)=O)[C@@H]1C [Rifampicin, rifampicin] | – |
| – | – | – | – | 34 | 19 | – | – | 23% | less than 50% | 25% | less than 50% | < 50 | – | – | CC(=O)N1CCN(c2ccc(OCC3COC(Cn4ccnc4)(c4ccc(Cl)cc4Cl)O3)cc2)CC1 (centres unmarked) [Ketoconazole, ketoconazole] | – |
| -44 | 10 | – | – | -10 | -10 | – | – | did not inhibit | – | did not inhibit | – | – | – | – | Clc1ccccc1C(c1ccccc1)(c1ccccc1)n1ccnc1 [Clotrimazole, clotrimazole] | no inhibitory properties; also recorded: did not inhibit |
| – | – | – | – | 21 | 27 | – | – | 21% | – | −1% | – | < 50 | less than 50% | less than 50% | CC(C)CN(C[C@@H](O)[C@H](Cc1ccccc1)NC(=O)O[C@H]1CCOC1)S(=O)(=O)c1ccc(N)cc1 [Amprenavir, amprenavir] | – |
| 24 | 16 | – | – | 73 | 69 | – | – | – | – | – | – | ≥ 50 | – | – | CC(C)c1nc(N(C)S(C)(=O)=O)nc(-c2ccc(F)cc2)c1/C=C/[C@@H](O)C[C@@H](O)CC(=O)O [Rosuvastatin, rosuvastatin] | – |

| SMILES | inhibition at 10 min, 10 µM (hOATP1B3) [%] | inhibition at 1 min, 10 µM (hOATP1B1) [%] | IC50 (rOATP1B2; 1 µM [3H]-E1S, 1 min, read-out: IC50, rOATP1B2-mediated E1S uptake) [nM] | fold difference of IC50 between mOATP1B2 and rOATP1B2 (stronger inhibition of rOATP1B2) (rOATP1B2; E1S uptake) [fold] | inhibition at 10 µM (rOATP1B2; [1]) [%] | inhibition at 10 µM (rOATP1B2; [2]) [%] | IC50 (rOATP1B2; IC50, rOATP1B2-mediated TCA uptake, 1 µM [3H]-TCA, 1 min) [nM] | fold difference of IC50 between mOATP1B2 and rOATP1B2 (rOATP1B2; TCA uptake) [fold] | Inhibitory effect on hOATP1B3-mediated TCA uptake (hOATP1B3) | Inhibitory effect on hOATP1B3-mediated TCA uptake (hOATP1B3; listed as ketoconazole) | Inhibitory effect on hOATP1B1-mediated E1S uptake (hOATP1B1) | Inhibitory effect on hOATP1B1-mediated E1S uptake (hOATP1B1; listed as ketoconazole) | inhibition at 10 µM (rOATP1B2; [3]) [%] | Inhibitory effect on hOATP1B3-mediated TCA uptake (hOATP1B3; listed as amprenavir) | Inhibitory effect on hOATP1B1-mediated E1S uptake (hOATP1B1; listed as amprenavir) | Inhibitory effect on rOATP1B2-mediated substrate uptake (summary over E1S and TCA) (rOATP1B2; 10 µM drug, substrates E1S and TCA not separated) |
| --- | --- | --- | --- | --- | --- | --- | --- | --- | --- | --- | --- | --- | --- | --- | --- | --- |
| CCCCC1(CCCC)CN(c2ccccc2)c2cc(SC)c(OCC(=O)N[C@@H](C(=O)N[C@@H](CC)C(=O)O)c3ccc(O)cc3)cc2S(=O)(=O)N1 [Odevixibat, odevixibat] | 102 | 96 | – | – | 82 | 74 | – | – | completely inhibited; also recorded: complete inhibition | – | completely inhibited; also recorded: complete inhibition | – | 54 to 82 | – | – | – |
